# Experimental data reported in ChEMBL document CHEMBL1201862, “PubChem BioAssay data set” (2004).
#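 Five concentrations, 48 hours, 96-well plates. The concentration for 50% growth inhibition is given as GI50.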 Active and inactive are the calls of the source. Rule as the data show it: active = GI50 up to about 1.1 µM and inactive = higher.
# Assays:
# Assay in all cases: NCI tumour cell line growth inhibition, 48 h
# A549 = test system: A549
# ACHN = test system: ACHN
# CCRF-CEM = test system: CCRF-CEM
# LOX IMVI = test system: LOX IMVI
# Malme-3M = test system: Malme-3M
# OVCAR-5 = test system: OVCAR-5
# RXF 393 = test system: RXF 393
# SF-268 = test system: SF-268
# SK-OV-3 = test system: SK-OV-3
# SNB-75 = test system: SNB-75
# SR = test system: SR
# SW-620 = test system: SW-620
# UACC-257 = test system: UACC-257
# UACC-62 = test system: UACC-62
# SF-539 = test system: SF-539
# HOP-92 = test system: HOP-92
Compound,GI50 (A549),GI50 (ACHN),GI50 (CCRF-CEM),GI50 (LOX IMVI),GI50 (Malme-3M),GI50 (OVCAR-5),GI50 (RXF 393),GI50 (SF-268),GI50 (SK-OV-3),GI50 (SNB-75),GI50 (SR),GI50 (SW-620),GI50 (UACC-257),GI50 (UACC-62),GI50 (SF-539),GI50 (HOP-92)
COc1cc(C)c(O)c(C(=O)O)c1,> 100 µM (inactive),> 100 µM (inactive),> 100 µM (inactive),> 100 µM (inactive),> 100 µM (inactive),> 100 µM (inactive),> 100 µM (inactive),> 100 µM (inactive),> 100 µM (inactive),> 100 µM (inactive),> 100 µM (inactive),> 100 µM (inactive),> 100 µM (inactive),> 100 µM (inactive),–,–
C=CC1(NS(=O)(=O)c2ccc(C)cc2)CCC(C(C)(C)C)CC1 (stereo unspecified),80.9 µM (inactive),65.3 µM (inactive),> 100 µM (inactive),–,82.2 µM (inactive),–,8.97 µM (inactive),27 µM (inactive),34.4 µM (inactive),17.8 µM (inactive),56 µM (inactive),> 100 µM (inactive),> 100 µM (inactive),28.5 µM (inactive),64 µM (inactive),–
NC(=O)CC(N/C=C1/N=C(c2ccccc2)OC1=O)C(=O)O (stereo unspecified),> 100 µM (inactive),> 100 µM (inactive),> 100 µM (inactive),> 100 µM (inactive),> 100 µM (inactive),> 100 µM (inactive),> 100 µM (inactive),> 100 µM (inactive),> 100 µM (inactive),> 100 µM (inactive),–,> 100 µM (inactive),> 100 µM (inactive),> 100 µM (inactive),> 100 µM (inactive),> 100 µM (inactive)
COc1ccc(/C=C2\C(=O)N(NC(C)=O)c3ccccc32)cc1,58.9 µM (inactive),> 100 µM (inactive),49.7 µM (inactive),> 100 µM (inactive),> 100 µM (inactive),> 100 µM (inactive),–,80.4 µM (inactive),> 100 µM (inactive),33.5 µM (inactive),–,95.9 µM (inactive),> 100 µM (inactive),> 100 µM (inactive),> 100 µM (inactive),> 100 µM (inactive)
CN(CCCCN)c1ccc2c(=O)[nH][nH]c(=O)c2c1,> 100 µM (inactive),> 100 µM (inactive),> 100 µM (inactive),> 100 µM (inactive),> 100 µM (inactive),> 100 µM (inactive),> 100 µM (inactive),13 µM (inactive),> 100 µM (inactive),88.3 µM (inactive),–,> 100 µM (inactive),> 100 µM (inactive),> 41.8 µM (inactive),> 100 µM (inactive),> 100 µM (inactive)
Cc1cc(C)c(C2[C@H]3C(=O)N(c4ccc(Cc5ccc(N6C(=O)[C@@H]7ON(c8ccccc8)C(c8c(C)cc(C)cc8C)[C@@H]7C6=O)cc5)cc4)C(=O)[C@H]3ON2c2ccccc2)c(C)c1 (stereo partly specified),> 100 µM (inactive),> 100 µM (inactive),> 100 µM (inactive),> 100 µM (inactive),> 100 µM (inactive),> 100 µM (inactive),44.1 µM (inactive),> 100 µM (inactive),> 100 µM (inactive),> 100 µM (inactive),> 100 µM (inactive),> 100 µM (inactive),> 100 µM (inactive),> 100 µM (inactive),> 100 µM (inactive),–
CN1N=C2NCCNC3=NN(C)/C(=N/CC/N=C/1S2)S3,> 100 µM (inactive),> 100 µM (inactive),> 100 µM (inactive),> 100 µM (inactive),–,> 100 µM (inactive),> 100 µM (inactive),> 100 µM (inactive),–,> 100 µM (inactive),> 100 µM (inactive),> 100 µM (inactive),> 100 µM (inactive),> 100 µM (inactive),> 100 µM (inactive),> 100 µM (inactive)
COc1cccc2c1C(=O)c1c(O)c3c(c(O)c1C2=O)C[C@@](O)(C(C)=O)C[C@@H]3OC1CC([N+]([O-])(Cc2ccccc2)Cc2ccccc2)C(O)C(C)O1 (stereo partly specified),1.29 µM (inactive),1.22 µM (inactive),0.399 µM (active),1.02 µM (active),–,1.79 µM (inactive),1.21 µM (inactive),–,4.2 µM (inactive),1.48 µM (inactive),0.179 µM (active),1 µM (active),1.71 µM (inactive),1.47 µM (inactive),1.26 µM (inactive),1.52 µM (inactive)
CC1(C)C(c2ccccc2)=NN(O)c2ccccc21,> 100 µM (inactive),–,> 100 µM (inactive),–,> 100 µM (inactive),> 100 µM (inactive),> 100 µM (inactive),> 100 µM (inactive),> 100 µM (inactive),86.1 µM (inactive),–,> 100 µM (inactive),> 100 µM (inactive),> 100 µM (inactive),> 100 µM (inactive),–
CCN(CC)CCC1CC/C(=C\c2ccc(OC)cc2)C1=O (stereo unspecified),> 100 µM (inactive),> 100 µM (inactive),> 100 µM (inactive),> 100 µM (inactive),> 100 µM (inactive),> 100 µM (inactive),42.3 µM (inactive),> 100 µM (inactive),–,> 100 µM (inactive),55.8 µM (inactive),> 100 µM (inactive),32 µM (inactive),17.5 µM (inactive),> 100 µM (inactive),39.5 µM (inactive)
COC(=O)C(C#N)=C1c2ccccc2Oc2ccccc21,> 100 µM (inactive),66.7 µM (inactive),32.4 µM (inactive),> 100 µM (inactive),93.3 µM (inactive),> 100 µM (inactive),38.5 µM (inactive),63 µM (inactive),42.1 µM (inactive),42.2 µM (inactive),–,43.2 µM (inactive),> 100 µM (inactive),35.7 µM (inactive),75.7 µM (inactive),30.5 µM (inactive)
Nc1ccccc1Nc1ccccc1C(=O)[O-].Nc1ccccc1Nc1ccccc1C(=O)[O-].[Zn+2],> 100 µM (inactive),> 100 µM (inactive),33 µM (inactive),–,> 100 µM (inactive),> 100 µM (inactive),–,45.6 µM (inactive),> 100 µM (inactive),17.7 µM (inactive),–,> 100 µM (inactive),33.7 µM (inactive),25.1 µM (inactive),> 100 µM (inactive),–
CCOC(=O)Oc1c(OC)cc(C(=O)NC2CCc3cc(OC)c(OC)c(OC)c3-c3ccc(SC)c(=O)cc32)cc1OC (stereo unspecified),0.428 µM (active),0.537 µM (active),< 0.007 µM (active),0.0466 µM (active),0.204 µM (active),–,–,0.0916 µM (active),0.0513 µM (active),0.071 µM (active),< 0.007 µM (active),0.0419 µM (active),0.0743 µM (active),0.0528 µM (active),0.0245 µM (active),0.0728 µM (active)
O=C1CCCN(c2ccccc2)N1,> 100 µM (inactive),> 100 µM (inactive),–,> 100 µM (inactive),> 100 µM (inactive),> 100 µM (inactive),> 100 µM (inactive),> 100 µM (inactive),> 100 µM (inactive),> 100 µM (inactive),> 100 µM (inactive),> 100 µM (inactive),> 100 µM (inactive),> 100 µM (inactive),> 100 µM (inactive),–
